According to PubChem BioAssay AID1919013 (Molecular Pharmacology Branch, DTP, NCI, 2023):

Tested on: LG0703-F498-PDC complex spheroid growth
Assay: Anticancer human tumor LG0703-F498-PDC patient-derived lung adenocarcinoma cell line growth inhibition [AhR]
Conditions: for IC50: curve of first compound; for viability, T/C: stronger effect = lower value; active means viability on the fitted dose curve at most 10% of control; inactive means the rest
Method in brief: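 Complex tumor spheroids co-cultured with HUVEC and human MSC stroma; AhR antagonists tested in combination with standard-of-care and investigational agents. Top concentration at or near clinical Cmax (else 10 microM), half-log dilutions; growth expressed as percent test/control.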

[1] = second compound 0.1 µM, first compound 0.0316 µM
[2] = second compound 0.1 µM, first compound 0.1 µM
[3] = second compound 0.316 µM, first compound 0.0316 µM
[4] = second compound 0.316 µM, first compound 0.1 µM
[5] = second compound 1 µM, first compound 0.0316 µM
[6] = second compound 1 µM, first compound 0.1 µM
[7] = second compound 3.16 µM, first compound 0.0316 µM
[8] = second compound 3.16 µM, first compound 0.1 µM
[9] = second compound 10 µM, first compound 0.0316 µM
[10] = second compound 10 µM, first compound 0.1 µM
[11] = second compound 0.1 µM, first compound 0.00949 µM
[12] = second compound 0.1 µM, first compound 0.03 µM
[13] = second compound 0.1 µM, first compound 0.0949 µM
[14] = second compound 0.1 µM, first compound 0.3 µM
[15] = second compound 0.316 µM, first compound 0.00949 µM
[16] = second compound 0.316 µM, first compound 0.03 µM
[17] = second compound 0.316 µM, first compound 0.0949 µM
[18] = second compound 0.316 µM, first compound 0.3 µM
[19] = second compound 1 µM, first compound 0.00949 µM
[20] = second compound 1 µM, first compound 0.03 µM
[21] = second compound 1 µM, first compound 0.0949 µM
[22] = second compound 1 µM, first compound 0.3 µM
[23] = second compound 3.16 µM, first compound 0.00949 µM
[24] = second compound 3.16 µM, first compound 0.03 µM
[25] = second compound 3.16 µM, first compound 0.0949 µM
[26] = second compound 3.16 µM, first compound 0.3 µM
[27] = second compound 10 µM, first compound 0.00949 µM
[28] = second compound 10 µM, first compound 0.03 µM
[29] = second compound 10 µM, first compound 0.0949 µM
[30] = second compound 10 µM, first compound 0.3 µM
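Further: luminescence taken as a proxy for viable cell amount.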
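Wherever viability, T/C is given: percent of DMSO vehicle control where 100% means growth equal to vehicle.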

CC1(C)CCC(CN2CCN(c3ccc(C(=O)NS(=O)(=O)c4ccc(NCC5CCOCC5)c([N+](=O)[O-])c4)c(Oc4cnc5[nH]ccc5c4)c3)CC2)=C(c2ccc(Cl)cc2)C1 + Cc1cncc(-c2nc(NCCc3c[nH]c4ccccc34)c3ncn(C(C)C)c3n2)c1
7970 nM: IC50 (second compound 1 µM)
< 31.6 nM: IC50 (second compound 10 µM)
31.6 nM: IC50 (second compound 3.16 µM)
7100 nM: IC50 (second compound 0.316 µM)
inactive: viability, T/C [1] 112% | viability, T/C [2] 96.1% | viability, T/C (second compound 0.1 µM, first compound 0.316 µM) 106% | viability, T/C (second compound 0.1 µM, first compound 1 µM) 97% | viability, T/C (second compound 0.1 µM, first compound 3.16 µM) 87.8% | viability, T/C (second compound 0.1 µM, first compound 10 µM) 42.5% | viability, T/C [3] 120% | viability, T/C [4] 88% | viability, T/C (second compound 0.316 µM, first compound 0.316 µM) 101% | viability, T/C (second compound 0.316 µM, first compound 1 µM) 92.7% | viability, T/C (second compound 0.316 µM, first compound 3.16 µM) 88.4% | viability, T/C (second compound 0.316 µM, first compound 10 µM) 34.3% | viability, T/C [5] 116% | viability, T/C [6] 113% | viability, T/C (second compound 1 µM, first compound 0.316 µM) 95% | viability, T/C (second compound 1 µM, first compound 1 µM) 103% | viability, T/C (second compound 1 µM, first compound 3.16 µM) 97.7% | viability, T/C (second compound 1 µM, first compound 10 µM) 37.8% | viability, T/C [7] 48% | viability, T/C [8] 49.5% | viability, T/C (second compound 3.16 µM, first compound 0.316 µM) 54.6% | viability, T/C (second compound 3.16 µM, first compound 1 µM) 43.3% | viability, T/C (second compound 3.16 µM, first compound 3.16 µM) 52.1% | viability, T/C (second compound 3.16 µM, first compound 10 µM) 24.7%
8320 nM: IC50 (second compound 0.1 µM)
active: viability, T/C [9] 1.31% | viability, T/C [10] 1.08% | viability, T/C (second compound 10 µM, first compound 0.316 µM) 1.56% | viability, T/C (second compound 10 µM, first compound 1 µM) 1.25% | viability, T/C (second compound 10 µM, first compound 3.16 µM) 1.72% | viability, T/C (second compound 10 µM, first compound 10 µM) 4.35%

CCN(c1cc(-c2ccc(CN3CCOCC3)cc2)cc(C(=O)NCc2c(C)cc(C)[nH]c2=O)c1C)C1CCOCC1 + Cc1cncc(-c2nc(NCCc3c[nH]c4ccccc34)c3ncn(C(C)C)c3n2)c1
> 3000 nM: IC50 (second compound 0.1 µM) | IC50 (second compound 0.316 µM) | IC50 (second compound 1 µM)
inactive: viability, T/C [11] 106% | viability, T/C [12] 110% | viability, T/C [13] 106% | viability, T/C [14] 102% | viability, T/C (second compound 0.1 µM, first compound 0.949 µM) 121% | viability, T/C (second compound 0.1 µM, first compound 3 µM) 123% | viability, T/C [15] 118% | viability, T/C [16] 104% | viability, T/C [17] 120% | viability, T/C [18] 104% | viability, T/C (second compound 0.316 µM, first compound 0.949 µM) 106% | viability, T/C (second compound 0.316 µM, first compound 3 µM) 125% | viability, T/C [19] 119% | viability, T/C [20] 110% | viability, T/C [21] 112% | viability, T/C [22] 111% | viability, T/C (second compound 1 µM, first compound 0.949 µM) 109% | viability, T/C (second compound 1 µM, first compound 3 µM) 120% | viability, T/C [23] 30.5% | viability, T/C [24] 26.3% | viability, T/C [25] 29.8% | viability, T/C [26] 30.8% | viability, T/C (second compound 3.16 µM, first compound 0.949 µM) 27.9% | viability, T/C (second compound 3.16 µM, first compound 3 µM) 35.5%
< 9.49 nM: IC50 (second compound 3.16 µM) | IC50 (second compound 10 µM)
active: viability, T/C [27] 1.09% | viability, T/C [28] 1.47% | viability, T/C [29] 1.79% | viability, T/C [30] 1.93% | viability, T/C (second compound 10 µM, first compound 0.949 µM) 0.83% | viability, T/C (second compound 10 µM, first compound 3 µM) 1.74%

Cn1ncnc1C1c2n[nH]c(=O)c3cc(F)cc(c23)NC1c1ccc(F)cc1 (stereo not given) + Cc1cncc(-c2nc(NCCc3c[nH]c4ccccc34)c3ncn(C(C)C)c3n2)c1
inactive: viability, T/C (second compound 0.1 µM, first compound 0.000316 µM) 101% | viability, T/C (second compound 0.1 µM, first compound 0.001 µM) 93.3% | viability, T/C (second compound 0.1 µM, first compound 0.00316 µM) 93.2% | viability, T/C (second compound 0.1 µM, first compound 0.01 µM) 93.8% | viability, T/C [1] 91.3% | viability, T/C [2] 82.6% | viability, T/C (second compound 0.316 µM, first compound 0.000316 µM) 94.6% | viability, T/C (second compound 0.316 µM, first compound 0.001 µM) 108% | viability, T/C (second compound 0.316 µM, first compound 0.00316 µM) 98.4% | viability, T/C (second compound 0.316 µM, first compound 0.01 µM) 98.5% | viability, T/C [3] 104% | viability, T/C [4] 89.1% | viability, T/C (second compound 1 µM, first compound 0.000316 µM) 103% | viability, T/C (second compound 1 µM, first compound 0.001 µM) 116% | viability, T/C (second compound 1 µM, first compound 0.00316 µM) 100% | viability, T/C (second compound 1 µM, first compound 0.01 µM) 106% | viability, T/C [5] 109% | viability, T/C [6] 95.7% | viability, T/C (second compound 3.16 µM, first compound 0.000316 µM) 49.3% | viability, T/C (second compound 3.16 µM, first compound 0.001 µM) 47% | viability, T/C (second compound 3.16 µM, first compound 0.00316 µM) 58.2% | viability, T/C (second compound 3.16 µM, first compound 0.01 µM) 42.4% | viability, T/C [7] 48% | viability, T/C [8] 54%
< 0.316 nM: IC50 (second compound 3.16 µM) | IC50 (second compound 10 µM)
active: viability, T/C (second compound 10 µM, first compound 0.000316 µM) 1.14% | viability, T/C (second compound 10 µM, first compound 0.001 µM) 1.01% | viability, T/C (second compound 10 µM, first compound 0.00316 µM) 1.11% | viability, T/C (second compound 10 µM, first compound 0.01 µM) 1.03% | viability, T/C [9] 1.15% | viability, T/C [10] 1.54%
> 100 nM: IC50 (second compound 0.1 µM) | IC50 (second compound 0.316 µM) | IC50 (second compound 1 µM)

Nc1ncn(C2CC(O)C(CO)S2)c(=O)n1 (stereo not given) + Cc1cncc(-c2nc(NCCc3c[nH]c4ccccc34)c3ncn(C(C)C)c3n2)c1
inactive: viability, T/C (second compound 0.1 µM, first compound 0.000949 µM) 107% | viability, T/C (second compound 0.1 µM, first compound 0.003 µM) 109% | viability, T/C [11] 91.9% | viability, T/C [12] 98.4% | viability, T/C [13] 104% | viability, T/C [14] 105% | viability, T/C (second compound 0.316 µM, first compound 0.000949 µM) 117% | viability, T/C (second compound 0.316 µM, first compound 0.003 µM) 107% | viability, T/C [15] 108% | viability, T/C [16] 115% | viability, T/C [17] 109% | viability, T/C [18] 99.1% | viability, T/C (second compound 1 µM, first compound 0.000949 µM) 87.3% | viability, T/C (second compound 1 µM, first compound 0.003 µM) 89.1% | viability, T/C [19] 78.2% | viability, T/C [20] 86.3% | viability, T/C [21] 94.4% | viability, T/C [22] 103%
> 300 nM: IC50 (second compound 0.1 µM) | IC50 (second compound 0.316 µM) | IC50 (second compound 1 µM)
active: viability, T/C (second compound 3.16 µM, first compound 0.000949 µM) 3.25% | viability, T/C (second compound 3.16 µM, first compound 0.003 µM) 3.89% | viability, T/C [23] 4.63% | viability, T/C [24] 5.24% | viability, T/C [25] 2.89% | viability, T/C [26] 4.14% | viability, T/C (second compound 10 µM, first compound 0.000949 µM) 1.24% | viability, T/C (second compound 10 µM, first compound 0.003 µM) 0.8% | viability, T/C [27] 1.81% | viability, T/C [28] 1.01% | viability, T/C [29] 1.6% | viability, T/C [30] 1.59%
< 0.949 nM: IC50 (second compound 3.16 µM) | IC50 (second compound 10 µM)
